Patent publication US10759803B2, “Asparagine endopeptidase (AEP) inhibitors for managing cancer and compositions related thereto” (priority 2014, dated 2020)

What was measured:
[1] = BBB-PAMPA permeability assay; type: in vitro ADME
CYP3A4 = CYP3A4 (Homo sapiens, UniProt P08684); experiment: CYP inhibition screening, CYP3A4-Midazolam; type: in vitro ADME
CYP3A = experiment: CYP inhibition screening, CYP3A-Testosterone; type: in vitro ADME
CYP2C9 = CYP2C9 (Homo sapiens, UniProt P11712); experiment: CYP inhibition screening, CYP2C9; type: in vitro ADME
CYP2D6 = CYP2D6 (Homo sapiens, UniProt P10635); experiment: CYP inhibition screening, CYP2D6; type: in vitro ADME
CYP2C19 = CYP2C19 (Homo sapiens, UniProt P33261); experiment: CYP inhibition screening, CYP2C19; type: in vitro ADME
CYP1A2 = target: T1, CYP1A2 (Homo sapiens, UniProt P05177); experiment: CYP inhibition screening, CYP1A2; type: in vitro ADME
T1 sequence (P05177 1-516): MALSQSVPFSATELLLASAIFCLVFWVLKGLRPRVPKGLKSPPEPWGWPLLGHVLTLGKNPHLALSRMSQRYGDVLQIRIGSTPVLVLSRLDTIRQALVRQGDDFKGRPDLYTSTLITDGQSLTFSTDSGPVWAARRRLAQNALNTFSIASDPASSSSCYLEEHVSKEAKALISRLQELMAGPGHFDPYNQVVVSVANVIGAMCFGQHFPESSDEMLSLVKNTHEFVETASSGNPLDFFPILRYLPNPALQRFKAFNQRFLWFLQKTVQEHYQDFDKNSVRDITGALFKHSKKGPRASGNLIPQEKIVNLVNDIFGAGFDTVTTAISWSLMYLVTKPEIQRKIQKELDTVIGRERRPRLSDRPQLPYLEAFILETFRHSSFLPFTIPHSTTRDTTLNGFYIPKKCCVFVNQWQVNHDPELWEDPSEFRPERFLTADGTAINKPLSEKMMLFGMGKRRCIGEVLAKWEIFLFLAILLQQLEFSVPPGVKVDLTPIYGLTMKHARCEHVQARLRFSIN

AEP [2] = experiment: AEP activity in OGD-treated primary neurons; type: cell-based; details: 0.1 μM or 1.0 μM compound, 5 μM Cbz-Ala-Ala-Asn-AMC
Description: (§1) A. AEP activity, measured in primary neuronal cultures with 5 μM Cbz-Ala-Ala-Asn-AMC (x-axis denotes neurons were treated with 0.1 μM or 1.0 μM specified compound). B. Caspase activity, measured in primary neuronal cultures with 5 μM Ac-Asp-Glu-Val-Asp-AMC. C. Cathepsin activity, measured in primary neuronal cultures with 5 μM D-Val-Leu-Lys-AMC. D. Inhibition of APP cleavage. Lysates of primary cortical neurons pre-incubated with compounds for 30 min, underwent OGD for 4 hrs, were reperfused for 18 hrs (normoxia neurons remained at normoxic conditions). E. APP can be cleaved in a dose-dependent manner. Lysates of primary cortical neurons pre-incubated with compounds for 30 min, underwent OGD for 4 hrs, were reperfused for 18 hrs (normoxia neurons remained at normoxic conditions).
Depriving cells of oxygen and glucose is a cellular model that is employed to trigger acidosis in cultured cells. The efficacy of the compounds in a cellular model of oxygen-glucose deprivation (OGD) was determined in an effort to mimic the effects of stroke in primary cultured neurons. As a result of depriving neurons of oxygen and glucose-containing medium, AEP activity was doubled (FIG. 7A, ‘DMSO-Norm’ compared to ‘DMSO-OGD’), while Caspase-3 and Cathepsin activities remained relatively unchanged. […]

[3] = test system: amyloid precursor protein (APP) cleavage; experiment: APP cleavage in OGD-treated primary cortical neurons; type: cell-based
Description: as §1
Depriving cells of oxygen and glucose is a cellular model that is employed to trigger acidosis in cultured cells. The efficacy of the compounds in a cellular model of oxygen-glucose deprivation (OGD) was determined in an effort to mimic the effects of stroke in primary cultured neurons. As a result of depriving neurons of oxygen and glucose-containing medium, AEP activity was doubled (FIG. 7A, ‘DMSO-Norm’ compared to ‘DMSO-OGD’), while Caspase-3 and Cathepsin activities remained relatively unchanged. […] Cleavage of APP is observed in response to only DMSO treatment (FIG. 7D, lane 2), and it appears that upon the treatment of 1 μM of compounds 10, 11, and 12, and just 0.1 μM of compound s31, 38 and 64, the cleavage was blocked, presumably due to AEP inhibition.

Caco-2 monolayer = Caco-2 monolayer permeability screen; details: Table 1
Description: To explore the in vitro ADME profiles of the compounds, additional tests were conducted.

[4] = Human liver microsomal stability screen; details: Human liver microsomes
[5] = Mouse liver microsomal stability screen; details: Mouse liver microsomes
AEP [6] = target: T2, AEP (Homo sapiens, UniProt Q99538); experiment: IC50 assay with purified recombinant AEP; type: biochemical; details: purified active AEP; read-out: IC50 toward AEP
T2 construct: tested with purified active AEP, IC50 values for the top 8 candidates were found
T2 sequence (Q99538 18-323 limits assumed): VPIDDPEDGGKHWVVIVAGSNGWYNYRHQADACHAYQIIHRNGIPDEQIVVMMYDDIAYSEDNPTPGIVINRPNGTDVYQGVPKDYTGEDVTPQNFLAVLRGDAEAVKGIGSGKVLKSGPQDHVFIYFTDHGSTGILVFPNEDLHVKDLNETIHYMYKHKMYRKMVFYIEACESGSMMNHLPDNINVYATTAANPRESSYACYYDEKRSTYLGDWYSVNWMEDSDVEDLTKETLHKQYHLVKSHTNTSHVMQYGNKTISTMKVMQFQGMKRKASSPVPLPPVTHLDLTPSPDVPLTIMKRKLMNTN
Description: Purified recombinant enzyme was incubated with various concentrations of inhibitor in appropriate assay buffers in the presence of increasing concentrations of inhibitor. The formation of fluorescent product was monitored in duplicate reactions and the data was fit to appropriate equations to calculate the IC50 values.
To identify small-molecule inhibitors of AEP, a high-throughput screen was designed in conjunction with the Emory Chemical Biology Discovery Center. The screen incorporated mouse kidney lysates to assay a 54,384 compound library. […] Additional structural analysis and grouping allowed the compounds to be sorted into 8 distinct backbone families. […] The specificity of the compounds was also determined using four major cysteine proteases (FIG. 2).
Various concentrations of the appropriate compound were incubated with AEP reaction buffer (50 mM Sodium Citrate pH 5.5, 0.1% CHAPS, 60 mM Na2HPO4, 1 mM EDTA, final pH 6.0) and peptide substrate, 10 μM Cbz-Ala-Ala-Asn-AMC (Bachem). The reaction was initiated upon addition of 50 nM AEP and fluorescent product formation was monitored over 15 min. […] Data were analyzed with GraFit version 5.0.11 software package.

Cathepsin-L = Cathepsin-L (Homo sapiens, UniProt P07711); experiment: Specificity assay against Cathepsin-L; type: biochemical
[7] = target: T3, endogenous AEP in human B lymphoblastoid pala cells (Homo sapiens, UniProt Q99538); experiment: AEP inhibition in intact Pala cells; type: cell-based; details: 2 hrs incubation, residual enzymatic activity in lysate
T3 construct: human B lymphoblastoid pala cells, which are rich in endogenous AEP; endogenous in cells; host or cells: human B lymphoblastoid Pala cells
T3 sequence (Q99538 18-323): T2 sequence (Q99538 18-323 limits assumed)
Description: The cells were incubated with inhibitors for 2 hrs then cells washed, harvested and lysed and the residual enzymatic activity was determined. Lysate was normalized by Bradford assay and the experiment was performed in triplicate and the mean results and SEM were plotted.
In an attempt to assess the activity of the compounds in intact cells, the compounds were incubated with human B lymphoblastoid pala cells, which are rich in endogenous AEP and have been used for inhibiting AEP in cellular assay.

AEP [8] = target: T2, AEP; experiment: DTT / L-cysteine reversibility of AEP inhibition; type: biochemical; details: 10 mM DTT or L-cysteine added after 15 min
Description: AEP was reacted with specified inhibitor, after 15 min 10 mM DTT or L-cysteine was added to the reaction and the fluorescent signal was read for an additional 15 min. At the end of the second 15 min incubation, the percentage of product formed in the presence of each compound was determined in comparison to the DMSO control reaction.
Although it is not intended that embodiments of this disclosure be limited by any particular mechanism, to gain additional insight into the mechanism utilized by the inhibitors for abrogation of AEP activity, their reversibility in the presence of free thiols was determined. The addition of a strong reducing agent, such as DTT, or a weaker reducing agent, L-cysteine, to an inhibited reaction can be used to out-compete the inhibitory agent and restore catalytic activity to an enzyme with an active-site thiol residue. Here, a similar approach was used by adding a reducing agent, either DTT or L-cysteine, to a reaction, in which AEP had been incubated with a specified inhibitor, in an attempt to reverse the effects of the inhibitor. […] For compounds BB1 and 38, this increase in enzymatic activity may be due to the reduction of a disulfide linkage between the inhibitor and the enzyme, since these compounds contain thiols. Compound 10 contains a thiocyanate and may undergoes nucleophilic attack by the enzyme's active-site thiolate to form a thioimidate enzyme-inhibitor complex. Under acidic conditions, this complex is reducible by either a strong reducing agent, such as DTT, or the weaker L-cysteine.

AEP [9] = target: T2, AEP; experiment: Inhibition kinetics assays (steady-state, Z-AAN-AMC); type: biochemical; details: competitive inhibition
Description: (§2) KI values for each inhibitor were determined by global fits to the competitive inhibition equation. C. Time course inactivation assays were used to generate progress curves, depicting product formation as a function of time. […] E. Time course inactivation assays were used to generate progress curves, depicting product formation as a function of time. Pseudo first-order rate constants were obtained at each concentration of compound BB1. F. Re-plot of the pseudo first-order rate constants, kobs, vs. the concentration of compound BB1.
(§3) A. Michaelis-Menten plots displaying competitive inhibition of AEP. The inhibition constant, K1, was determined from the globally fit data. B. Double reciprocal Lineweaver-Burk plots also displaying competitive inhibition. C. […] DC. A plot of the corrected kobs values obtained from each curve in (B) versus the concentration of compound 38, which enabled the calculation of the second-order rate constant, kinact/KI to be determined to measure the potency of the inhibitor.
To determine the inhibition constants and the mechanism by which compound 38 inhibits AEP, the steady-state kinetic parameters for the hydrolysis of the peptide substrate, Z-AAN-AMC, were determined in the absence or presence of increasing concentrations of inhibitor. In these assays, specified concentrations of the inhibitor were pre-incubated with substrate for 10 min at 37° C., then 50 nM AEP was added to initiate the reaction, which was quenched after 10 min. […]
In the equations, Kii is the intercept Ki, and Kis is the slope Ki. The mode of the inhibition induced by the compounds on AEP was determined by the best fit of the data to equations 1-4. […]

AEP [10] = target: T2, AEP; experiment: Time course inactivation assays; type: biochemical
Description: as §2, §3
Progress curves were generated by incubating 5 μM Z-AAN-AMC and the specified concentration of inhibitor in assay buffer at 37° C. for 10 min. The reaction was initiated by the addition of 50 nM AEP and quenched after 10 min. The concentration of the product was determined from an AMC standard curve and the data was fit by nonlinear regression. Since the curves were nonlinear, they were fit to equation 5, using the GraFit version 5.0.11 software package, [Product]=vi(1−e^−kobs.app*t)/kobs.app (eq 5), where vi is the initial velocity, kobs.app is the apparent pseudo-first order rate constant for inactivation, and t is time. Equation 6, kobs=[…] (eq 6), was used to correct the apparent pseudo-first-order inactivation rate constants, obtained from this analysis, for substrate concentration and the pseudo-first-order inactivation rate constants, i.e. kobs, thus obtained, were plotted against the tested inhibitor concentrations. […]

Sequence of CYP3A4 (P08684 whole entry): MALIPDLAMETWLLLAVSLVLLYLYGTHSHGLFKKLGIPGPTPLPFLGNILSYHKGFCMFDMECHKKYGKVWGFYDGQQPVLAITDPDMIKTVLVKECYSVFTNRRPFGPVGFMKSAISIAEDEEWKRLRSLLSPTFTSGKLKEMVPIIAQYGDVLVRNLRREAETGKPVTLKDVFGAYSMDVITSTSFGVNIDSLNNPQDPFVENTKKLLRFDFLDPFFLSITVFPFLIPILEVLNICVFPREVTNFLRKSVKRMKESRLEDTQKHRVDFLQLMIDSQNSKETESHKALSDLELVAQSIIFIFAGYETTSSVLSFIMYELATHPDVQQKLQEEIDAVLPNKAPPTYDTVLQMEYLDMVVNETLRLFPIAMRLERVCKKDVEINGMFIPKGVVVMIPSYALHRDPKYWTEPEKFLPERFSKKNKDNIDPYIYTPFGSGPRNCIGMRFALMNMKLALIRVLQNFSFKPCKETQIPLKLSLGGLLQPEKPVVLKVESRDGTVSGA
Sequence of CYP2D6 (P10635 whole entry): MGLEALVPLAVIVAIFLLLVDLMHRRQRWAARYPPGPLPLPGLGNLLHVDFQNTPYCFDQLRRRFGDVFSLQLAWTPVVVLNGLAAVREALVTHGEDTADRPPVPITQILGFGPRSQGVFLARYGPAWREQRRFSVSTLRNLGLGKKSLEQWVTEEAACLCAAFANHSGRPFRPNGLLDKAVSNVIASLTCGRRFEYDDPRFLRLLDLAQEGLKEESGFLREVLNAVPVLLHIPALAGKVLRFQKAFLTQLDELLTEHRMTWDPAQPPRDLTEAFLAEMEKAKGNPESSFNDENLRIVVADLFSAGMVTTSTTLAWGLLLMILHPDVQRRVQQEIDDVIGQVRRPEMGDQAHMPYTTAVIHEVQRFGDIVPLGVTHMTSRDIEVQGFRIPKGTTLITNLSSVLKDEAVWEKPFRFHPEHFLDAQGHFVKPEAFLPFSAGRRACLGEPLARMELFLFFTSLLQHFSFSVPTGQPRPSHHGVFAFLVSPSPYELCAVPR
Sequence of CYP2C19 (P33261 whole entry): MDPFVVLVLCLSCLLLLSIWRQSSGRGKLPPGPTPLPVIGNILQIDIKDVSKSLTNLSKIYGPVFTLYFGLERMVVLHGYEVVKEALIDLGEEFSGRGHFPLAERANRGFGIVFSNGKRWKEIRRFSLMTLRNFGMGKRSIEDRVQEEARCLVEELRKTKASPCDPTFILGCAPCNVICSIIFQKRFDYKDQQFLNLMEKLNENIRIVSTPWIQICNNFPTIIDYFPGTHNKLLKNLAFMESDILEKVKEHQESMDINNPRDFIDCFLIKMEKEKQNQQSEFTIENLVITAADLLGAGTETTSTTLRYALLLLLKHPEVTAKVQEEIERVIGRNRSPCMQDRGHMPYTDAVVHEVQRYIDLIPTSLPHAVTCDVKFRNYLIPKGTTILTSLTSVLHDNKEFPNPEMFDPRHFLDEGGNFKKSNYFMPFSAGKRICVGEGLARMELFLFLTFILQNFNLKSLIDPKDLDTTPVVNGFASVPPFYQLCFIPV
Sequence of CYP2C9 (P11712 whole entry): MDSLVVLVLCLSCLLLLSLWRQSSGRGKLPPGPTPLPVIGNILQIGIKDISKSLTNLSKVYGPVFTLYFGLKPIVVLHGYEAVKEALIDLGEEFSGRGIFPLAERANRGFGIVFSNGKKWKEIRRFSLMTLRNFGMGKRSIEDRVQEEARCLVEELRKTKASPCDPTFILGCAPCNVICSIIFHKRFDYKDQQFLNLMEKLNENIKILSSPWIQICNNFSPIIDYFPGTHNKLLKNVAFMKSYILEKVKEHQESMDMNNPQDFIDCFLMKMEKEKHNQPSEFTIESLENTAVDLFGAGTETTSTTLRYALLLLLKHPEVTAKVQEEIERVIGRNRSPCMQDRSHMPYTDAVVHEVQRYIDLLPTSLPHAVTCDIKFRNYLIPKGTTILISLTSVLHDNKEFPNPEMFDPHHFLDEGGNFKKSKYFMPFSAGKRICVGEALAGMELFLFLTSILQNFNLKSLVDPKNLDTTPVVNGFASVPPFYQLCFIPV
Sequence of Cathepsin-L (P07711 114-333, species assumed): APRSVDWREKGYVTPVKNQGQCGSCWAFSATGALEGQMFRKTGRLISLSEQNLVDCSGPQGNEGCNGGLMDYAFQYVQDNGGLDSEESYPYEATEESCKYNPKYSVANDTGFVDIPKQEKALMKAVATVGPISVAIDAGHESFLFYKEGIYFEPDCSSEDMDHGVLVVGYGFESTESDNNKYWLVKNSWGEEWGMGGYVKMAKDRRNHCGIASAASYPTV

Cc1cccc(NCc2ccc(O)c3ncccc23)c1C [Compound 12]
Pe [1]: <LLOQ
CYP3A4-Midazolam inhibition (CYP3A4; 3 μM): −2.5%
CYP3A4-Midazolam inhibition (CYP3A4; 10 μM): −2.5%
CYP3A-Testosterone inhibition (CYP3A; 3 μM): 14.2%
CYP3A-Testosterone inhibition (CYP3A; 10 μM): 27.6%
CYP2C9 inhibition (CYP2C9; 3 μM): 4.3%
CYP2C9 inhibition (CYP2C9; 10 μM): −2.7%
CYP2D6 inhibition (CYP2D6; 3 μM): 2.9%
CYP2D6 inhibition (CYP2D6; 10 μM): −2.6%
CYP2C19 inhibition (CYP2C19; 3 μM): 13.4%
CYP2C19 inhibition (CYP2C19; 10 μM): 29.4%
CYP1A2 inhibition (CYP1A2; 3 μM): 28.4%
CYP1A2 inhibition (CYP1A2; 10 μM): 44.5%
AEP activity in OGD neurons (AEP [2]): slight decrease
APP cleavage after OGD ([3]; 1 μM compound): blocked
APP cleavage after OGD, dose dependence ([3]; FIG. 7E): dose-dependent decrease
A −>B Papp (Caco-2 monolayer): 1.4 10^−6 cm · s^−1
B −> A Papp (Caco-2 monolayer): 3.7 10^−6 cm · s^−1
RE (Caco-2 monolayer): 2.7
Mean Remaining Parent (NADPH-free) [4]: 1%
Mean Remaining Parent (with NADPH) ([4]; 30 min): 1%
Mean Remaining Parent (NADPH-free) [5]: 0%
Mean Remaining Parent (with NADPH) [5]: 1%

Sc1nnc(Nc2ccccc2)s1 [Compound BB1]
IC50 (AEP [6]): ~0.13 µM
selectivity for AEP over Cathepsin-L (Cathepsin-L): about 38 fold
IC50 in intact Pala cells [7]: slightly larger IC50 values
AEP activity after addition of reducing agent (reversibility) (AEP [8]): regained a substantial amount of activity
inhibition constants in words (AEP [9]): nanomolar-range
second-order rate constant, kinact/KI (AEP [10]): 55000 M⁻¹ s⁻¹
